Data as given in patent US12492215B2, “Pyrrolotriazine compounds acting as MNK inhibitor” (JUMBO DRUG BANK CO., LTD., priority 2019, dated 2025).
Structures can show the parent of a compound that is named as a salt.

Assays:
MNK1 (h) protein kinase = MNK1 (h) protein kinase (Homo sapiens (Human), UniProt Q9BUB5); test: Inhibitory activity against MNK1 protein kinase (Kinase HotSpot Profiling, 33P-ATP); format: biochemical; details: 120 min room temperature
Method: 2. In Vitro Evaluation of Inhibitory Activity of Compound Disclosed Herein Against MNK1 Protein Kinase
Purpose of experiment: to test the inhibitory activity of the compound against MNK1 protein kinase
Experimental materials: assay buffer: 20 mM 4-hydroxyethylpiperazine ethanesulfonic acid (pH 7.5), 10 mM magnesium chloride, 1 mM ethylene glycol-bis-(2-aminoethylether)-N,N,N′,N′-tetraacetic acid, 0.02% polyoxyethylene lauryl ether, 0.02 mg/mL bovine serum albumin, 0.1 mM sodium vanadate, 2 mM dithiothreitol, and 1% DMSO.
Experimental operation: Mnk1 protein kinase inhibitory activity assays were performed using the Kinase HotSpot Profiling service from Reaction Biology Corp. The substrate was added to a freshly prepared buffer, followed by addition of MNK1 (h). The mixture was stirred homogeneously. Serially diluted DMSO solution containing the compounds to be tested (3-fold serial dilution, starting from 3 μM) was added by using Echo550, and then ^33P-ATP (final intensity of radioactivity: 0.01 μCi/μl) was added to initiate the reaction. The mixture was pre-incubated at room temperature for 120 min. […] The concentration of the radioactive phosphorylated substrate remaining on the filter paper was measured.
The protein kinase inhibitory activity of the compound was expressed as a percentage of the residual protein kinase activity relative to the blank substrate (DMSO alone). […]

[1] = Pharmacokinetic evaluation in mice; format: in vivo, CD-1 mice; details: male, CD-1, mouse, plasma; for bioavailability: PO 2 mg/kg vs IV 0.5 mg/kg, read-out: Bioavailability F; for AUC(0-t) / half-life: PO 2 mg/kg; for AUC(0-t): read-out: Area under the plasma drug concentration-time curve AUC0-last PO; for Cmax: intragastric 2 mg/kg, intravenous 0.5 mg/kg (route of Cmax not given), read-out: Peak concentration Cmax; for clearance / Vd: intravenous injection 0.5 mg/kg; for clearance: read-out: Clearance CL; for Vd: read-out: Tissue distribution Vdss; for half-life: read-out: Half-life T1/2 (PO) (converted)
Method: 4. Pharmacokinetic Evaluation of Compounds Disclosed Herein
Purpose of experiment: to test pharmacokinetic parameters of the compounds in CD-1 mice
Experimental materials: CD-1 mice (Male, 7-9 weeks age, Shanghai Sippe-Bk Lab Animal Co., Ltd.)
Experimental operation: pharmacokinetic characteristics of the compounds after intravenous injection and oral administration for the rodent were tested by a standard scheme, and the candidate compounds were each formulated into a clear solution or a uniform suspension in the experiments and intravenously administered and intragastrically administered once to a mouse. The vehicle for the intravenous injection and oral administration was […] hydroxypropyl-β-cyclodextrin aqueous solution or normal saline solution. […] Two mice were subjected to intravenous injection at a dose of 0.5 mg/kg, and plasma samples were collected at 0 h (before administration) and 0.083, 0.25, 0.5, 1, 2, 4, 8, 12 and 24 h (after administration); the other two mice were subjected to intragastric administration at a dose of 2 mg/kg, and plasma samples were collected at 0 h (before administration) and 0.25, 0.5, 1, 2, 4, 8, 12 and 24 h (after administration). Whole blood samples within 24 h were collected and each centrifuged at 3000 g for 10 min. The supernatant was separated to obtain plasma sample, and acetonitrile solution containing internal standard whose volume is […] that of the plasma sample was added to precipitate the protein. The mixture was vortexed at 800 rpm for 10 min, and then 1 μL of supernatant was taken for injection. Plasma concentrations were quantitatively analyzed by LC-MS/MS method, and pharmacokinetic parameters, such as peak concentration (Cmax), clearance (CL), half-life (T1/2), tissue distribution (Vdss), area under the plasma drug concentration-time curve (AUC0-last) and bioavailability (F), were calculated.

MNK2 (h) protein kinase = MNK2 (h) protein kinase (Homo sapiens (Human), UniProt Q9HBH9); test: Inhibitory activity against MNK2 protein kinase (KinaseProfiler, 33P-ATP filter-binding); format: biochemical; details: myelin basic protein substrate, 40 min room temperature
Sequence of MNK2 (h) protein kinase (Q9HBH9 whole entry): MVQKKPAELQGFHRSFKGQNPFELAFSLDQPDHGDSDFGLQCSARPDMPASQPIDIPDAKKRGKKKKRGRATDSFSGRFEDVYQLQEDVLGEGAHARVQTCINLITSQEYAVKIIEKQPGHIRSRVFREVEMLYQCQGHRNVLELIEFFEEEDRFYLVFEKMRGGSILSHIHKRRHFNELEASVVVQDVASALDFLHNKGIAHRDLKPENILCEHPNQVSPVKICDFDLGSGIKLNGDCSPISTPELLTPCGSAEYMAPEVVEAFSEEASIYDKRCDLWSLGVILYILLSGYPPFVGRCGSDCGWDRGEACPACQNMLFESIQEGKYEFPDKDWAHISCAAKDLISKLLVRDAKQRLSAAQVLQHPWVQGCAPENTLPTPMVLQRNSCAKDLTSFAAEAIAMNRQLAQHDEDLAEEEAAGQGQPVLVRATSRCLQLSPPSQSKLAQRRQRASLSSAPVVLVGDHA
Method: 1. In Vitro Evaluation of Inhibitory Activity of Compounds Disclosed Herein Against MNK2 Protein Kinase
Purpose of experiment: to test the inhibitory activity of the compounds against MNK2 protein kinase
Experimental materials: assay buffer: 8 mM 3-(N-morpholino)propanesulfonic acid, 0.2 mM disodium ethylenediaminetetraacetate, 0.01% polyoxyethylene lauryl ether, 5% glycerol, 0.1% β-mercaptoethanol and 1 mg of bovine serum albumin
Experimental operation: Mnk2 protein kinase inhibitory activity assays were performed using the KinaseProfiler™ service from Eurofins Pharma Discovery Services UK Limited. Serially diluted DMSO solutions containing the compounds to be tested (3-fold serial dilution, starting from 10 μM), MNK2 (h) protein kinase and 0.33 mg/mL myelin basic protein were added to a freshly prepared buffer (pH 7.0), and then stirred homogeneously. The reaction was initiated by adding a mixture of ^33P-ATP (intensity of radioactivity: 10 μCi/μL) and 10 mM magnesium acetate. After the resulting mixture was reacted at room temperature for 40 min, the reaction was terminated by adding phosphoric acid to dilute to a concentration of 0.5%. 10 μL of the reaction solution was filtered using a P30 filtermat, and then the filtermat was washed four times with 0.425% phosphoric acid for 4 min each, followed by washing once with methanol. After drying, the intensity of radioactivity was determined using the Filter-Binding method.
The protein kinase inhibitory activity of the compounds was expressed as a percentage of the residual protein kinase activity relative to the blank substrate (DMSO alone). The Prism4 software package (GraphPad) was used to calculate IC50 values and fit curves.

[2] = tested on: eIF4E phosphorylation of HCT116 cell strain; test: Inhibition of eIF4E phosphorylation in HCT116 cell strain (AlphaLISA p-eIF4E Ser209); format: cell-based; details: Homo sapiens, HCT-116; HCT116 cells, 3 h incubation
Text: 3. In Vitro Evaluation of Inhibitory Activity of Compounds Disclosed Herein Against eIF4E Phosphorylation Purpose of experiment: to test the inhibition (IC50) of the compounds against eIF4E phosphorylation of HCT116 cell strain. Experimental materials: HCT116 cells (ATCC), RPM11640 medium (Life technology), fetal bovine serum (Hyclone), double antibodies (penicillin, streptomycin) (Millipore), phosphate buffer (Corning), 384-well cell plate (PerkinElmer), and AlphaLISA® SureFire® Ultra™ p-eIF4E (Ser209) Assay Kit (PerkinElmer). Experimental operation: HCT116 cells were digested to make a cell suspension, which was then plated in a 96-well plate. The cell plate was then placed in an incubator for overnight incubation. Compounds were diluted to corresponding concentrations and added to the cell plate, and the resulting mixture was incubated for 3 h. The cells were subsequently lysed with a lysis buffer, and the lysate was transferred to a 384-well plate. A mixed receptor was freshly prepared according to the kit instructions and added to the 384-well plate, and the mixture was incubated at room temperature for 1 h. Then a mixed donor was freshly prepared according to the kit instructions and added to the 384-well plate, and the resulting mixture was incubated at room temperature for 1 h. The signals were read on EnVision using the standard AlphaLISA program, curves were fitted using Graphpad prism, and the IC50 values were calculated.

[3] = tested on: CT-26 mouse colon cancer graft tumor; test: In vivo efficacy in CT-26 mouse graft tumor; design: species or system mice; details: QD, 21-day treatment, CT-26 graft tumor
Method: 5. In Vivo Efficacy Experiment of Compound Disclosed Herein for CT-26 Mouse Graft Tumor
Purpose of experiment: to determine in vivo efficacy of compound for CT-26 mouse graft tumor
Experimental materials: CT-26 cells, RMPI-1640 medium containing 10% fetal bovine serum, and mice (female, Shanghai Sippe-Bk Lab Animal Co., Ltd.)
Experimental operation: CT-26 cells were cultured in RMPI-1640 medium containing 10% fetal bovine serum in an incubator at 37° C./5% CO2. Tumor cells were subcultured, and after an appropriate concentration was reached and the tumor cells were in the logarithmic growth phase, the tumor cells were collected, counted and then resuspended in DPBS (phosphate buffered solution), and the concentration of the cell suspension was adjusted to 3×10^6/mL for inoculation.
Establishment of mouse colon cancer graft tumor: cells were collected and adjusted to a concentration of 3×10^6 cells/mL (resuspended in DPBS to obtain cell suspension), and 0.1 mL of tumor cells was injected subcutaneously at the right dorsal side of the mice under sterile conditions, and 3×10^5 cells were inoculated for each mouse. After the tumor grew to a certain size, the length (a) and the width (b) of the tumor was measured by using a digital vernier caliper, and the tumor volume (TV) was calculated, wherein the calculation formula is as follows: TV=a×b^2/2.
CT-26 tumor cell inoculation: on the day of inoculation, animals were grouped (8 animals for each) according to the body weight and subjected to drug administration separately, and the day of inoculation was considered as D0. When the tumor size reached about 60 mm^3, the animals in the antibody groups were grouped according to the tumor size and the body weight. The body weight and tumor size of the animals were measured three times a week during the experiment, while clinical symptoms of the animals were observed and recorded daily, and for each administration, reference was made to the animal body weight measured most recently. The inhibitory effect of the compound on colon cancer graft tumor in mice was determined after 21-day treatment at a dose of 30 mg/Kg QD (once daily), 90 mg/Kg QD (once daily) and 200 mg/Kg QD (once daily), and the specific information is shown in Table 5 below.
The calculation formula of T/C (%) is as follows: T/C (%)=(TRTV/CRTV)×100%. TRTV is the relative tumor volume of the treatment group, and CRTV is the relative tumor volume of the negative control group; TGI (%)^a=(1−average tumor volume at the end of administration of a treatment group/average tumor volume at the end of treatment of the vehicle control group)×100%.

[4] = background statement; cited from earlier work
[5] = tested on: expression of PD-1, LAG3 and IL-10; details: background statement; cited from earlier work

Sequence of MNK1 (h) protein kinase (Q9BUB5 whole entry): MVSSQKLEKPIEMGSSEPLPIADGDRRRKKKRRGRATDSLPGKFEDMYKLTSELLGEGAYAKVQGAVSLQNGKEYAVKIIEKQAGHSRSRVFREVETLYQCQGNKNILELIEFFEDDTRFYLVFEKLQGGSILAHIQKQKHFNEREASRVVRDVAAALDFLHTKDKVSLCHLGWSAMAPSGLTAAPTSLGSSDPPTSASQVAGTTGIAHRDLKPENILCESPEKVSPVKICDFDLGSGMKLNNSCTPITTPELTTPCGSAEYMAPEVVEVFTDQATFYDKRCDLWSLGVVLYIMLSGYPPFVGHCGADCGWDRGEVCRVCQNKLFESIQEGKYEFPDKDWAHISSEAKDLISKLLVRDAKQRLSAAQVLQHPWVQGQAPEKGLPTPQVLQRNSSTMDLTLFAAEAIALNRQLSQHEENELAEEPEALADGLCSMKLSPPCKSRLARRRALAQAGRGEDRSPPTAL

Row | Structure (SMILES) | IC50 (MNK2 (h) protein kinase) | IC50 [2] | further results
1 | Cc1cc(Nc2ncnn3cc(OCCN4CCCC4)c(C)c23)c(=O)n2c1C(=O)NC21CCCCC1 [Compound 1 (hydrochloride)] | 22 nM | 0.00346 µM | IC50 (MNK1 (h) protein kinase): 54.6 nM; bioavailability [1]: 32.5%; AUC(0-t) [1]: 956 nM·h; Cmax [1]: 0.0359 µM; clearance [1]: 2 L/h/kg; Vd [1]: 14.1 L/kg
2 | Cc1cc(Nc2ncnn3cc(OCCN4CCCC4)c(C)c23)c(=O)n2c1C(=O)NC21CCNCC1 [Compound 2 (hydrochloride)] | 63 nM |  | 
3 | Cc1cc(Nc2ncnn3cc(OCCN4CCCC4)c(C)c23)c(=O)n2c1C(=O)NC21CCN(C)CC1 [Compound 3 (hydrochloride)] | 39 nM |  | 
4 | Cc1c(OCCN2CCCC2)cn2ncnc(Nc3ccc4n(c3=O)C3(CCCCC3)NC4=O)c12 [Compound 4 (hydrochloride)] | 25 nM | 0.014 µM | 
5 | Cc1c(OCCN2CCCC2)cn2ncnc(Nc3cc(F)c4n(c3=O)C3(CCCCC3)NC4=O)c12 [Compound 5 (hydrochloride)] | 26 nM | 0.0095 µM | 
6 | Cc1c(OCCN2CCCC2)cn2ncnc(Nc3cc(Cl)c4n(c3=O)C3(CCCCC3)NC4=O)c12 [Compound 6 (hydrochloride)] | 21 nM | 0.00066 µM | 
7 | Cc1cc(Nc2ncnn3cc(OCCN4CCCC4)c(C)c23)c(=O)n2c1C(=O)NC21CCCC1 [Compound 7 (hydrochloride)] | 17 nM | 0.0065 µM | AUC(0-t) [1]: 1390 nM·h; half-life [1]: 3.2 h; Cmax [1]: 0.131 µM
8 | Cc1cc(Nc2ncnn3cc(OCCN4CCCC4)c(C)c23)c(=O)n2c1C(=O)NC2(C)C [Compound 8 (hydrochloride)] | 33 nM | 0.024 µM | 
9 | Cc1cc(Nc2ncnn3cc(OCCN4CCCC4)c(C)c23)c(=O)n2c1C(=O)NC21CCC(F)(F)CC1 [Compound 9 (hydrochloride)] | 30 nM | 0.012 µM | 
10 | Cc1c(OCCN2CCCC2)cn2ncnc(Nc3cc(Cl)c4n(c3=O)C3(CCCC3)NC4=O)c12 [Compound 10 (hydrochloride)] | 8 nM | 0.0031 µM | 
11 | Cc1cc(Nc2ncnn3cc(OCCN4CCC(F)(F)C4)c(C)c23)c(=O)n2c1C(=O)NC21CCCCC1 [Compound 11] | 28 nM | 0.0189 µM | bioavailability [1]: 14.2%; AUC(0-t) [1]: 405 nM·h; half-life [1]: 12.1 h; Cmax [1]: 0.104 µM; clearance [1]: 1.31 L/h/kg; Vd [1]: 2.53 L/kg
12 | Cc1cc(Nc2ncnn3cc(OCCN4CCC(F)(F)C4)c(C)c23)c(=O)n2c1C(=O)NC21CCCC1 [Compound 12] |  | 0.0086 µM | T/C % ([3]; 30 mg/Kg): 36.43%; TGI % ([3]; 30 mg/Kg): 63.57%; T/C % ([3]; 90 mg/Kg): 31.11%; TGI % ([3]; 90 mg/Kg): 68.89%; T/C % ([3]; 200 mg/Kg): 33.31%; TGI % ([3]; 200 mg/Kg): 68.51%
13 | Cc1cc(Nc2ncnn3cc(OC[C@H](C)N4CCCC4)c(C)c23)c(=O)n2c1C(=O)NC21CCCC1 [Compound 13] | 14 nM | 0.0105 µM | 
14 | Cc1cc(Nc2ncnn3cc(OCC4CCNC4)c(C)c23)c(=O)n2c1C(=O)NC21CCCCC1 (stereo not shown) [Compound 15 (hydrochloride)] | 28 nM |  | 
15 | Cc1cc(Nc2ncnn3cc(OCC4CCN(C)C4)c(C)c23)c(=O)n2c1C(=O)NC21CCCCC1 (stereo not shown) [Compound 16 (hydrochloride)] | 27 nM | 0.0028 µM | 
16 | Cc1cc(Nc2cc(N)ncn2)c(=O)n2c1C(=O)NC21CCCCC1 [eFT508] |  |  | safety in phase I clinical trial [4]: good safety; effect on expression of PD-1, LAG3 and IL-10 [5]: selectively inhibit the expression of PD-1, LAG3 and IL-10
